Assay results published in ChEMBL document CHEMBL4507296 (2021).

Columns and labels:
[1] = target: Transient receptor potential cation channel subfamily M member 8 (Homo sapiens, UniProt Q7Z2W7); experiment: Assay (coming soon)
[2] = target: 5-hydroxytryptamine receptor 1A (Homo sapiens) (UniProt P08908); conditions: Compound concentration 10.0 uM
[3] = target: 5-hydroxytryptamine receptor 1B (Homo sapiens) (UniProt P28222); conditions: Compound concentration 10.0 uM
[4] = target: 5-hydroxytryptamine receptor 2A (Homo sapiens) (UniProt P28223); conditions: Compound concentration 10.0 uM
[5] = target: 5-hydroxytryptamine receptor 2B (Homo sapiens) (UniProt P41595); conditions: Compound concentration 10.0 uM
[6] = target: 5-hydroxytryptamine receptor 2C (Homo sapiens) (UniProt P28335); conditions: Compound concentration 10.0 uM
Sequence of 5-hydroxytryptamine receptor 2C (Homo sapiens) (P28335 whole entry): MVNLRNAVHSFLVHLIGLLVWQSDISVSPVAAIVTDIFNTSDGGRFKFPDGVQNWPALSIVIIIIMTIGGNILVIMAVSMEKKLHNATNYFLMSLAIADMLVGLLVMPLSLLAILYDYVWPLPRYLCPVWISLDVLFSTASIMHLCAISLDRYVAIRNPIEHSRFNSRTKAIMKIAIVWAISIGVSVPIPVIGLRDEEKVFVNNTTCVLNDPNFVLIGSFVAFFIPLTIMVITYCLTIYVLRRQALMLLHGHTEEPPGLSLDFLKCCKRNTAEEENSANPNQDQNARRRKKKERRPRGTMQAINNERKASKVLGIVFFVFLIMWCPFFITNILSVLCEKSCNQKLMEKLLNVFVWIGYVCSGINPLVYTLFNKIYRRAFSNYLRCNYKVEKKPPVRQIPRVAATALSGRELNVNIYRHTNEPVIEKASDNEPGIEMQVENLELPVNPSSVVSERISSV

[7] = target: 5-hydroxytryptamine receptor 3A (Homo sapiens) (UniProt P46098); conditions: Compound concentration 10.0 uM
Sequence of 5-hydroxytryptamine receptor 3A (Homo sapiens) (P46098 whole entry): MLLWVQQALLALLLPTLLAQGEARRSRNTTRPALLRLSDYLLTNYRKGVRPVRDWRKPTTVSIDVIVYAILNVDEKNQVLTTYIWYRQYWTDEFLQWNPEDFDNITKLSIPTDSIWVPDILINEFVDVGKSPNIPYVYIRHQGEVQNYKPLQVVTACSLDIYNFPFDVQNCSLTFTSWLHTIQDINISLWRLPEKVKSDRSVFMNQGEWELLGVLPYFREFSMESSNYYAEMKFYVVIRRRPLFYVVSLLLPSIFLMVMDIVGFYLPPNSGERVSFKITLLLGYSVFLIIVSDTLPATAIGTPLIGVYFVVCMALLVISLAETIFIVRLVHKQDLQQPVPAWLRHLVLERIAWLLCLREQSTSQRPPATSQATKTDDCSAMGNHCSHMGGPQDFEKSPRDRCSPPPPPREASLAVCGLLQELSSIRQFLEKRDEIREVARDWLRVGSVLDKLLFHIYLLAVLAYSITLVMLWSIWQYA

[8] = target: 5-hydroxytryptamine receptor 5A (Homo sapiens) (UniProt P47898); conditions: Compound concentration 10.0 uM
[9] = target: 5-hydroxytryptamine receptor 6 (Homo sapiens) (UniProt P50406); conditions: Compound concentration 10.0 uM
[10] = target: 5-hydroxytryptamine receptor 7 (Homo sapiens) (UniProt P34969); conditions: Compound concentration 10.0 uM
[11] = target: D(2) dopamine receptor (Homo sapiens) (UniProt P14416); conditions: Compound concentration 10.0 uM
[12] = target: D(4) dopamine receptor (Homo sapiens) (UniProt P21917); conditions: Compound concentration 10.0 uM
[13] = target: D(1B) dopamine receptor (Homo sapiens) (UniProt P21918); conditions: Compound concentration 10.0 uM
[14] = target: Sodium-dependent serotonin transporter (Homo sapiens) (UniProt P31645); conditions: Compound concentration 10.0 uM
Sequence of Sodium-dependent serotonin transporter (Homo sapiens) (P31645 whole entry, looked up): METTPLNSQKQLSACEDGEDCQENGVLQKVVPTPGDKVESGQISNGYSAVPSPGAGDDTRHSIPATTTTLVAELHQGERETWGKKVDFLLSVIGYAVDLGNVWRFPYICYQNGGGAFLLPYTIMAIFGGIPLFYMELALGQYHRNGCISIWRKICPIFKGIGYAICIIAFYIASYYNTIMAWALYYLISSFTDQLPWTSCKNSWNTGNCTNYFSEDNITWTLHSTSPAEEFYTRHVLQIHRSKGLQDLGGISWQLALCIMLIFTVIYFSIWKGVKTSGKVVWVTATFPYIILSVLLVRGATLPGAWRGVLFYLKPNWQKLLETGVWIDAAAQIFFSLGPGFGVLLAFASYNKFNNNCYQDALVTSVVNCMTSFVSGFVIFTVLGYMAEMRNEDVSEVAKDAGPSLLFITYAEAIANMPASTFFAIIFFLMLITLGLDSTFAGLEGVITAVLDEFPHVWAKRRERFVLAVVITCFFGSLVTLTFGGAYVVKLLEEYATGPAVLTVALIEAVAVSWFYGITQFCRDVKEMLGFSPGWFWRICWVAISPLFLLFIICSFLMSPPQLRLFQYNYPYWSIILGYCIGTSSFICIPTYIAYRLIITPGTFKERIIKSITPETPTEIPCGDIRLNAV

[15] = target: Sodium-dependent noradrenaline transporter (Homo sapiens) (UniProt P23975); conditions: Compound concentration 10.0 uM
[16] = target: Mu-type opioid receptor (Homo sapiens) (UniProt P35372); conditions: Compound concentration 10.0 uM
Sequence of Mu-type opioid receptor (Homo sapiens) (P35372 whole entry): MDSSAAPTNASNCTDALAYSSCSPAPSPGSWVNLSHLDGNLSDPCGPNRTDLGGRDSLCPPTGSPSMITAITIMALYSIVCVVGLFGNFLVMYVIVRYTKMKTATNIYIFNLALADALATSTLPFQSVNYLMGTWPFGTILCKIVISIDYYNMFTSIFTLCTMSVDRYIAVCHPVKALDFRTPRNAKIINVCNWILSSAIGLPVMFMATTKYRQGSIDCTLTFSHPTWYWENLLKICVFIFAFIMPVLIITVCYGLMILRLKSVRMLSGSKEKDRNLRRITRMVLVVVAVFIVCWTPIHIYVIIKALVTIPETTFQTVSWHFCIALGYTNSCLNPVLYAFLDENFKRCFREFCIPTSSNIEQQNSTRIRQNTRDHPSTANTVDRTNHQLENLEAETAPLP

[17] = target: Delta-type opioid receptor (Homo sapiens) (UniProt P41143); conditions: Compound concentration 10.0 uM
Sequence of Delta-type opioid receptor (Homo sapiens) (P41143 whole entry): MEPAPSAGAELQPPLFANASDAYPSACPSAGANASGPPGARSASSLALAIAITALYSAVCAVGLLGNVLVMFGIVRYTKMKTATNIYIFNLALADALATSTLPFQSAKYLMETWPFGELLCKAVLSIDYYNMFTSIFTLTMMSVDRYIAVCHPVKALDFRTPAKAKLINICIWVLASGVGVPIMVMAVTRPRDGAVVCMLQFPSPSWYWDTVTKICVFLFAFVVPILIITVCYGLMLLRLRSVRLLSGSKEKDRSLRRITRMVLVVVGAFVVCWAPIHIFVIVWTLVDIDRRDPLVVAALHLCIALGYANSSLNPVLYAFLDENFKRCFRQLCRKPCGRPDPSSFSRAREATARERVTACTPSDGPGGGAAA

[18] = target: Kappa-type opioid receptor (Homo sapiens) (UniProt P41145); conditions: Compound concentration 10.0 uM
[19] = target: T1, GABA-A receptor; anion channel (Rattus norvegicus) (UniProt O09028+P15431+P18506+P18508+P19969+P20236+P23574+P23576+P28471+P28473+P30191+P62813+P63079+P63138+Q91ZM7+Q9ES14); conditions: Compound concentration 10.0 uM
[20] = target: Histamine H1 receptor (Homo sapiens) (UniProt P35367); conditions: Compound concentration 10.0 uM
[21] = target: Histamine H3 receptor (Homo sapiens) (UniProt Q9Y5N1); conditions: Compound concentration 10.0 uM
Sequence of Histamine H3 receptor (Homo sapiens) (Q9Y5N1 whole entry): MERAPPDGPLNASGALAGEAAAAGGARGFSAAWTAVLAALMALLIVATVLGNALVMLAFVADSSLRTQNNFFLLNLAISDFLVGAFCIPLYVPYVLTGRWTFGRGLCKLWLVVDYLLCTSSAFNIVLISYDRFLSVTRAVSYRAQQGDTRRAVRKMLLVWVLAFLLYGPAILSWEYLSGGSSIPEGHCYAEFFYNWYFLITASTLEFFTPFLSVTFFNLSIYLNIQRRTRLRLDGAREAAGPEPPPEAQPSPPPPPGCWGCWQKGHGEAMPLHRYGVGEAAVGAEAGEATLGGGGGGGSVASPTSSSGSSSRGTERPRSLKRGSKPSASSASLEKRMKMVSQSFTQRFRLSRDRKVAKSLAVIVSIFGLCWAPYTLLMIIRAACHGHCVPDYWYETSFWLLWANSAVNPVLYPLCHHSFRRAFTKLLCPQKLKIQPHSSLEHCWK

[22] = target: Histamine H4 receptor (Homo sapiens) (UniProt Q9H3N8); conditions: Compound concentration 10.0 uM
[23] = target: Alpha-1A adrenergic receptor (Homo sapiens) (UniProt P35348); conditions: Compound concentration 10.0 uM
Sequence of Alpha-1A adrenergic receptor (Homo sapiens) (P35348 whole entry): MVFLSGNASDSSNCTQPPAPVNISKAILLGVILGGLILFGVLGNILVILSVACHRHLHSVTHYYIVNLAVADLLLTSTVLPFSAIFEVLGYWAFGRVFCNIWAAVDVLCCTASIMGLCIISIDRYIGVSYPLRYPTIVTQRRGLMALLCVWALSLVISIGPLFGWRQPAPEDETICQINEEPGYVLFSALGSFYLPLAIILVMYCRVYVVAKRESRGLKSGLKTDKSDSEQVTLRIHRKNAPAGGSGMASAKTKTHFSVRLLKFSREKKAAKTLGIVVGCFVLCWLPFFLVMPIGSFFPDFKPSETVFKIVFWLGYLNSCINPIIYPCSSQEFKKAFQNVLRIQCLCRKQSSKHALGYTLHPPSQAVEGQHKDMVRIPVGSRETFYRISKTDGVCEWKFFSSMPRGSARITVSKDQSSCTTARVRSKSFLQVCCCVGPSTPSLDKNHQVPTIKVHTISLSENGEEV

[24] = target: Alpha-1B adrenergic receptor (Homo sapiens) (UniProt P35368); conditions: Compound concentration 10.0 uM
Sequence of Alpha-1B adrenergic receptor (Homo sapiens) (P35368 whole entry): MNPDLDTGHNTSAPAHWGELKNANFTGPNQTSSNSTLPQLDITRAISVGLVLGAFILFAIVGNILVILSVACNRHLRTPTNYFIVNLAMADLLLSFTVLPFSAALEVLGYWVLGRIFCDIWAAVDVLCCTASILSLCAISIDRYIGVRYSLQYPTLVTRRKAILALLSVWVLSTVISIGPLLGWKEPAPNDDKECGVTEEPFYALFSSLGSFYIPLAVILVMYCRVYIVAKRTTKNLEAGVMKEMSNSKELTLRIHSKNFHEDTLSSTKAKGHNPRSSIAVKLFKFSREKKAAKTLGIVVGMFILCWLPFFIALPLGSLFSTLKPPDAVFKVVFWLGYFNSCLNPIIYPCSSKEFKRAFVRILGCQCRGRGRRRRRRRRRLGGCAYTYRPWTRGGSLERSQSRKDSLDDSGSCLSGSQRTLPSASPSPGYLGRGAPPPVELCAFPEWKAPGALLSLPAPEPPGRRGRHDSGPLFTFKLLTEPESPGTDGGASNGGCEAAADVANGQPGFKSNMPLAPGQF

[25] = target: T2, Alpha-2B adrenergic receptor (Homo sapiens) (UniProt P18089); conditions: Compound concentration 10.0 uM
T2 sequence (whole entry): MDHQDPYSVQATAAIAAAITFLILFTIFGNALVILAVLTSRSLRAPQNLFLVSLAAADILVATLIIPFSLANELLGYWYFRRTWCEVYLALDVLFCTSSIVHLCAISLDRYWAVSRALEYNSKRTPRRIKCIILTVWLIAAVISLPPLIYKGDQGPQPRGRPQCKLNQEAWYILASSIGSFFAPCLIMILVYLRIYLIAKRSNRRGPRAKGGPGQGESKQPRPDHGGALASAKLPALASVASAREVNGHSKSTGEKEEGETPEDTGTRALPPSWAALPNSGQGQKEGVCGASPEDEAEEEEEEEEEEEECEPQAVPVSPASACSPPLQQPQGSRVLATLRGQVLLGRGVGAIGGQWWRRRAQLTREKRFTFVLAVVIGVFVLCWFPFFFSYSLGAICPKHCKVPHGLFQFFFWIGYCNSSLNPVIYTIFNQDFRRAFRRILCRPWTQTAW

[26] = target: Alpha-2C adrenergic receptor (Homo sapiens) (UniProt P18825); conditions: Compound concentration 10.0 uM
[27] = target: Beta-1 adrenergic receptor (Homo sapiens) (UniProt P08588); conditions: Compound concentration 10.0 uM
[28] = target: Beta-2 adrenergic receptor (Homo sapiens) (UniProt P07550); conditions: Compound concentration 10.0 uM
[29] = target: Muscarinic acetylcholine receptor M1 (Homo sapiens) (UniProt P11229); conditions: Compound concentration 10.0 uM
[30] = target: Muscarinic acetylcholine receptor M2 (Homo sapiens) (UniProt P08172); conditions: Compound concentration 10.0 uM
[31] = target: Muscarinic acetylcholine receptor M3 (Homo sapiens) (UniProt P20309); conditions: Compound concentration 10.0 uM
[32] = target: Muscarinic acetylcholine receptor M4 (Homo sapiens) (UniProt P08173); conditions: Compound concentration 10.0 uM
[33] = target: Muscarinic acetylcholine receptor M5 (Homo sapiens) (UniProt P08912); conditions: Compound concentration 10.0 uM
Sequence of Muscarinic acetylcholine receptor M5 (Homo sapiens) (P08912 whole entry): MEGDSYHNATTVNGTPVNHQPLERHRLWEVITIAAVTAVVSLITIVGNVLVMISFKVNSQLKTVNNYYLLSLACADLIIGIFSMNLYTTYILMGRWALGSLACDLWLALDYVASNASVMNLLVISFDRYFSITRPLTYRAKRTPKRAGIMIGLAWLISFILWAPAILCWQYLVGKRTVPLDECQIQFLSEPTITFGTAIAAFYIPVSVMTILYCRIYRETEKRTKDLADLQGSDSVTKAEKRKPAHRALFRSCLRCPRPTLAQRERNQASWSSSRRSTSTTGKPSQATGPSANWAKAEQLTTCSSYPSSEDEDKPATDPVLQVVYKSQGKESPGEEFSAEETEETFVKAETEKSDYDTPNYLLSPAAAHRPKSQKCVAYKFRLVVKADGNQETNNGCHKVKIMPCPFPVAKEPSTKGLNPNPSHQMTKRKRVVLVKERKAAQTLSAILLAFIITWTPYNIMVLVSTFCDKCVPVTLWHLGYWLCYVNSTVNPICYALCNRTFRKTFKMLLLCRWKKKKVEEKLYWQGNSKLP

[34] = target: Beta-3 adrenergic receptor (Homo sapiens) (UniProt P13945); conditions: Compound concentration 10.0 uM
Sequence of Beta-3 adrenergic receptor (Homo sapiens) (P13945 whole entry, looked up): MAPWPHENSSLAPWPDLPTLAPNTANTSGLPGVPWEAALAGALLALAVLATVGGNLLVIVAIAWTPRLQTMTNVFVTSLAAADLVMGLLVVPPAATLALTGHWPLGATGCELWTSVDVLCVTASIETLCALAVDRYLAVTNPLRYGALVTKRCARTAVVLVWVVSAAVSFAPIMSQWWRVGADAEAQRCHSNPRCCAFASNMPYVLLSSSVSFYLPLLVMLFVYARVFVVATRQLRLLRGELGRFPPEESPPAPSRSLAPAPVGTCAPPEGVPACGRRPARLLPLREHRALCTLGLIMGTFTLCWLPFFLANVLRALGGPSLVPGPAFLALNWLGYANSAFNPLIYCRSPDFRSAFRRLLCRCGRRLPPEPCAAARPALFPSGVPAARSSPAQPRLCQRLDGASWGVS

[35] = target: T1, GABA-A receptor; anion channel (Rattus norvegicus); conditions: Compound concentration 10.0 uM; remark: listed apart in the source
Rattus norvegicus = species on record: Rattus norvegicus; conditions: Compound concentration 10.0 uM
[36] = target: Alpha-1D adrenergic receptor (Homo sapiens) (UniProt P25100); conditions: Compound concentration 10.0 uM

IC50 [1]: > 10 µM (not active)
inhibition [2]: -3.79%
inhibition [3]: -7.94%
inhibition [4]: -2.34%
inhibition [5]: 21.8%
inhibition [6]: -7.78%
inhibition [7]: 14.3%
inhibition [8]: 1.77%
inhibition [9]: 11.3%
inhibition [10]: 13.8%
inhibition [11]: -0.95%
inhibition [12]: 14.9%
inhibition [13]: 12.8%
inhibition [14]: -2.63%
inhibition [15]: -9.65%
inhibition [16]: 0.07%
inhibition [17]: 12.4%
inhibition [18]: -0.42%
inhibition [19]: -0.14%
inhibition [20]: -3.13%
inhibition [21]: -8.13%
inhibition [22]: 3.41%
inhibition [23]: 11.5%
inhibition [24]: -1.36%
inhibition [25]: 17.7%
inhibition [26]: 14.2%
inhibition [27]: -0.35%
inhibition [28]: 24.1%
inhibition [29]: 14.5%
inhibition [30]: 1.24%
inhibition [31]: 39%
inhibition [32]: 4.42%
inhibition [33]: -1.1%
inhibition [34]: -5.1%
inhibition [35]: 28.3%
inhibition (Rattus norvegicus): -9.88%
inhibition [36]: 10.1%
SMILES: C[C@H](c1ccc(F)cc1)N(Cc1ccc(Cl)c(C(=O)O)c1)C(=O)c1cnc2ccccc2c1 [PF-05257137]
